The nature of data set [1]: Liver metabolic stability assay, hLM. It is filed as in vitro ADME, human. The conditions noted are these: human liver microsomes, 1 mg protein/ml, 5 μM test compound, 15 min, 37 °C.
Data set [2] can be described thus: Plasma protein binding assay (rapid equilibrium device). It counts as in vitro ADME. The conditions noted are these: guinea pig plasma, equilibrium dialysis 4 h at 37 °C, read-out: fraction bound (converted). As for the experimental part:
Plasma was freshly prepared by centrifugation of guinea pig blood for 10 min at 1900 g in K3-EDTA (Ethylenediaminetetraacetic acid) coated tubes. The plasma protein binding of compounds was assessed at 5 μM concentrations as described by Van Liemp et al. 2010 (Van Liemp S, Morrison D, Sysmans L, Nelis P & Mortishire-Smith R (2010). Development and Validation of a Higher-Throughput Equilibrium Dialysis Assay for Plasma Protein Binding. Journal of the Association for Laboratory Automation, 2010, in press) using a rapid equilibrium device (RED). Briefly, guinea pig plasma was mixed with 5 μM test compound and then applied to the RED. Equilibrium was achieved after 4 h incubation at 37° C. Compound concentrations in the buffer and plasma compartment of the device were measured by LC-MS/MS.

Data set [3] has as its system Sporothrix schenkii B62482. The data set can be described thus: Antifungal activity in vitro (resazurin susceptibility screen), Inf. A. It counts as cell-based. The conditions noted are these: Sporothrix, B62482, Sporothrix schenkii B62482; 27 °C, 4 days, resa time 24 hours; highest in-test concentration 64 μM; read-out: Inf. A pIC50 (converted). The method, boiled down:
(§1)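 First, serial dilutions of test compound are spotted onto plates, which may be stored dark at 4 °C for up to 2 weeks. Next, each well gets 10^3 cfu of fungus from cryopreserved stock diluted 1/1000 in medium. Untreated culture and RPMI-MOPS alone serve as plate controls.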

Data set [4] deals with Trichophyton mentagrophytes B70554. As to the kind of experiment: Antifungal activity in vitro (resazurin susceptibility screen), Inf. G. It is filed as cell-based. The conditions noted are these: Trichophyton mentagrophytes, B70554, Trichophyton mentagrophytes B70554; 27 °C, 7 days, resa time 24 hours; read-out: Inf. G pIC50 (converted). The method, boiled down:
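Each well was inoculated with 10^3 cfu of fungus onto dried, pre-spotted compound serial dilutions in RPMI-MOPS medium, with fungal growth read by resazurin. Growth was referenced to drug-free culture (100%) and medium-only (0%) controls on each plate.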

Data set [5] deals with Rhizomucor miehei IHEM13391. The data set can be described thus: Antifungal activity in vitro (resazurin susceptibility screen), Inf. K. The conditions noted are these: 37 °C, 48 hours, resa time 17 hours, read-out: Inf. K pIC50 (converted). It is filed as cell-based. The method, boiled down: as §1
Data set [6] relates to Cryptococcus neoformans B66663. As to the kind of experiment: Antifungal activity in vitro (resazurin susceptibility screen), Inf. F. The conditions noted are these: Cryptococcus neoformans, B66663, Cryptococcus neoformans B66663; 37 °C, 24 hours, resa time 4 hours; read-out: Inf. F pIC50 (converted). It is filed as cell-based. The method, boiled down: as §1
In data set [7] the test system is Trichophyton rubrum B68183. The data set can be described thus: Antifungal activity in vitro (resazurin susceptibility screen), Inf. C. It is filed as cell-based. The conditions noted are these: Trichophyton rubrum B68183; 27 °C, 7 days, resa time 24 hours; read-out: Inf. C pIC50 (converted). In short, it runs like this: as §1
Data set [8] has as its system Aspergillus fumigatus B42928. The data set can be described thus: Antifungal activity in vitro (resazurin susceptibility screen), Inf. E. It is filed as cell-based. The conditions noted are these: Aspergillus fumigatus B42928; 27 °C, 48 hours, resa time 17 hours; read-out: Inf. E pIC50 (converted). The method, boiled down: as §1
Data set [9] in a line: Liver metabolic stability assay, mLM. It counts as in vitro ADME. The conditions noted are these: mouse liver microsomes, 1 mg protein/ml, 5 μM test compound, 15 min, 37 °C. The method, boiled down:
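Microsomes pre-incubated 5 min at 37° C, reaction started with 5 μM test compound and stopped with DMSO at 0 and 15 min. Supernatant analysed by LC-MS/MS (ion-trap, APCI) to give % compound remaining.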

Some results are limits rather than exact numbers.

The compound `CC(=O)c1ccc(C2=NCc3cccc(Cl)c3-n3cccc32)cc1` [Compound 15, 1-[4-(10-chloro-6H-pyrrolo[1,2-a][1,4]benzodiazepin-4-yl)phenyl]-ethanone] came in with a melting point of 171.4 to 171.8 °C. For the same compound, the “%-compound metabolised_Met_hLM” value in data set [1] is listed as 17%. Also, the fraction unbound at 4 h, 5 μM in [2] was 0.0152. For the same compound, the IC50 in data set [3] was 1580 nM. In data set [4], the IC50 was 398 nM. Also, the IC50 in data set [5] is 7940 nM. Moreover, in [6], the IC50 was 2000 nM. Also, the IC50 in data set [7] is 126 nM. The IC50 in data set [8] is 501 nM.

In the case of `CC(=O)c1cccc(C2=NCc3c(Cl)cccc3-n3cccc32)c1` [Compound 16, 1-[3-(7-chloro-6H-pyrrolo[1,2-a][1,4]benzodiazepin-4-yl)phenyl]-ethanone], the “%-compound metabolised Met_mLM” value in data set [9] came to 97%. Also, the “%-compound metabolised_Met_hLM” value in data set [1] turned out to be 87%. Moreover, the IC50 was 25100 nM in data set [3]; 398 nM in [4]; greater than 63100 nM in [5]; greater than 63100 nM in data set [6]; 50.1 nM in [7]; 631 nM in [8].

Take `CC(=O)c1cc(C2=NCc3c(Cl)cccc3-n3cccc32)ccc1F` [Compound 19, 1-[5-(7-chloro-6H-pyrrolo[1,2-a][1,4]benzodiazepin-4-yl)-2-fluorophenyl]-ethanone]: the melting point was 146.2 to 147.7 °C. The “%-compound metabolised_Met_hLM” value in [1] was determined as 36%. Further, the IC50 in data set [3] is greater than 63100 nM. In addition, in [4], the IC50 is 794 nM. Moreover, in [5], the IC50 is greater than 63100 nM. In data set [6], the IC50 is greater than 63100 nM. In addition, the IC50 in [7] was 200 nM. The IC50 in data set [8] is 2000 nM.

`CC(=O)c1ccc(C2=NCc3c(F)cccc3-n3cccc32)cc1` [Compound 20, 1-[4-(7-fluoro-6H-pyrrolo[1,2-a][1,4]benzodiazepin-4-yl)phenyl]-ethanone] returned a melting point of 215.2 to 216 °C. Moreover, the “%-compound metabolised_Met_hLM” value in data set [1] is on record as 26%. The IC50 in [3] was greater than 63100 nM. In data set [4], the IC50 is 398 nM. Moreover, in [5], the IC50 is greater than 63100 nM. In addition, the IC50 in data set [6] was greater than 63100 nM. Moreover, the IC50 in [7] is 100 nM. Further, the IC50 in data set [8] was 501 nM.

Compound `CC(=O)c1ccc(C2=NCc3c(Cl)cc(Cl)cc3-n3cccc32)cc1` [Compound 22, 1-[4-(7,9-dichloro-6H-pyrrolo[1,2-a][1,4]benzodiazepin-4-yl)phenyl]-ethanone] showed a melting point of 250.2 to 254.2 °C. Further, the “%-compound metabolised Met_mLM” value in [9] is on record as 37%. The “%-compound metabolised_Met_hLM” value in [1] was 27%. For the same compound, the IC50 in data set [3] is 3980 nM. In addition, the IC50 in data set [4] was 316 nM. The IC50 in data set [5] was greater than 63100 nM. For the same compound, the IC50 in data set [6] is 10000 nM. The IC50 in data set [7] is 50.1 nM. Also, in data set [8], the IC50 is 251 nM.

The compound `CC(=O)c1ccc(C2=NCc3c(F)cc(F)cc3-n3cccc32)cc1` [Compound 24, 1-[4-(7,9-difluoro-6H-pyrrolo[1,2-a][1,4]benzodiazepin-4-yl)phenyl]-ethanone] registered a melting point of 226.9 to 230 °C. The “%-compound metabolised_Met_hLM” value in data set [1] is 20%. The IC50 in [3] is 20000 nM. For the same compound, in [4], the IC50 was 631 nM. In [5], the IC50 was greater than 63100 nM. Further, the IC50 in [6] was 10000 nM. The IC50 in data set [7] is 126 nM. Also, the IC50 in data set [8] is 794 nM.
